This passage reports viability and inhibition results from ChEMBL document CHEMBL6078668, “Synthesis and biological evaluation of lappaconitine analogues as potential anti-neuroinflammatory agents by side chain modification and scaffold hopping strategy” (Bioorg Med Chem, 2025).

Data set [1] can be described thus: Cytotoxicity against C57BL/6 mouse BV-2 cells assessed as survival rate at 30 uM incubated for 24 hrs by MTT assay relative to control. In kind it is toxicity, cell-based. As to conditions: read-out: Survival. In general terms: Formazan colour is commonly taken as a measure of viable cells.
The next data set relates to BV-2. In words: Anti-neuroinflammatory activity against LPS-stimulated C57BL/6 mouse BV-2 cells assessed as inhibition of NO release at 30 uM preincubated with compound for 4 hrs followed by LPS addition and measured after 24 hrs by Griess reagent based assay relative to control. In kind it is functional. As to conditions: C57BL/6, BV-2, time 28 hrs. (In general: Griess reagent forms a coloured azo dye with nitrite.)

A word on the inhibition: it is the change of the read-out against control, counted positive when it falls.

For `CCN1C[C@]2(OC(=O)c3ccccc3NC(=O)c3ccccc3)CC[C@H](OC)[C@]34C1[C@@H](C[C@H]23)[C@@]1(O)C[C@H](OC)[C@H]2C[C@@H]4[C@]1(O)[C@H]2OC`, in data set [1], the viability at 24 h, 30 µM is 107%. Besides, the inhibition at 30 µM in the data set on BV-2 worked out at 36%.
The corresponding values for `COC(=O)c1ccccc1NC(=O)c1ccc(Cl)s1` are 93.5% and 48.6%.
As for `CCN1C[C@]2(OC(=O)c3ccccc3NC(=O)S(=O)(=O)c3ccc(NC(C)=O)cc3)CC[C@H](OC)[C@]34C1[C@@H](C[C@H]23)[C@@]1(O)C[C@H](OC)[C@H]2C[C@@H]4[C@]1(O)[C@H]2OC`, the viability at 24 h, 30 µM in data set [1] is 104%. Further, the inhibition at 30 µM in the data set on BV-2 amounted to 10.4%.
Taken in the same sequence, the figures for `CCN1C[C@]2(OC(=O)c3ccccc3NC(=O)CCc3ccccc3)CC[C@H](OC)[C@]34C1[C@@H](C[C@H]23)[C@@]1(O)C[C@H](OC)[C@H]2C[C@@H]4[C@]1(O)[C@H]2OC` were 108% and 16.6%.
Taken in the same sequence, the figures for `CCN1C[C@]2(OC(=O)c3ccccc3NC(=O)c3cccc(Cl)c3)CC[C@H](OC)[C@]34C1[C@@H](C[C@H]23)[C@@]1(O)C[C@H](OC)[C@H]2C[C@@H]4[C@]1(O)[C@H]2OC` were 104% and 12.9%.
Turning to `CCN1C[C@]2(OC(=O)c3ccccc3NC(=O)S(=O)(=O)c3ccc(C)cc3)CC[C@H](OC)[C@]34C1[C@@H](C[C@H]23)[C@@]1(O)C[C@H](OC)[C@H]2C[C@@H]4[C@]1(O)[C@H]2OC`, the viability at 24 h, 30 µM in data set [1] was 102%. Besides, the inhibition at 30 µM in the data set with BV-2 was 31.7%.
The corresponding values for `CCN1C[C@]2(COC)CC[C@H](OC)[C@]34C1[C@@H](C[C@H]23)[C@@]1(O)C[C@H](OC)[C@H]2C[C@@H]4[C@]1(O)[C@H]2OC(=O)c1ccccc1N` are 101% and 19.4%.
Taken in the same sequence, the figures for `O=c1c(O)c(-c2ccc(O)c(O)c2)oc2cc(O)cc(O)c12` [QUERCETIN] were 99.5% and 76.7%.
Take `C=C(C)C(=O)Nc1ccccc1C(=O)O[C@@]12CC[C@H](OC)[C@]34C([C@@H](C[C@H]13)[C@@]1(O)C[C@H](OC)[C@H]3C[C@@H]4[C@]1(O)[C@H]3OC)N(CC)C2`: the viability at 24 h, 30 µM in data set [1] was 94.2%. Besides, in the data set with BV-2, the inhibition at 30 µM worked out at 12.9%.
Taken in the same sequence, the figures for `CCN1C[C@]2(OC(=O)c3ccccc3NC(=O)S(=O)(=O)c3cc(OC)ccc3OC)CC[C@H](OC)[C@]34C1[C@@H](C[C@H]23)[C@@]1(O)C[C@H](OC)[C@H]2C[C@@H]4[C@]1(O)[C@H]2OC` were 102% and 26.3%.
Taken in the same sequence, the figures for `CCN1C[C@]2(OC(=O)c3ccccc3NC(=O)S(=O)(=O)c3cc(Cl)ccc3F)CC[C@H](OC)[C@]34C1[C@@H](C[C@H]23)[C@@]1(O)C[C@H](OC)[C@H]2C[C@@H]4[C@]1(O)[C@H]2OC` were 95.1% and 36.1%.
The corresponding values for `CCN1C[C@]2(OC(=O)c3ccccc3NC(=O)S(=O)(=O)c3ccc(C)c(Cl)c3)CC[C@H](OC)[C@]34C1[C@@H](C[C@H]23)[C@@]1(O)C[C@H](OC)[C@H]2C[C@@H]4[C@]1(O)[C@H]2OC` are 94.8% and 25.2%.
Take `CCN1C[C@]2(OC(=O)c3ccccc3NC(=O)S(=O)(=O)c3ccc(F)cc3F)CC[C@H](OC)[C@]34C1[C@@H](C[C@H]23)[C@@]1(O)C[C@H](OC)[C@H]2C[C@@H]4[C@]1(O)[C@H]2OC`: the viability at 24 h, 30 µM in data set [1] worked out at 103%. Further, the inhibition at 30 µM in the data set on BV-2 amounted to 47.5%.
`CCN1C[C@]2(OC(=O)c3ccccc3NC(=O)S(=O)(=O)c3ccc(Cl)cc3)CC[C@H](OC)[C@]34C1[C@@H](C[C@H]23)[C@@]1(O)C[C@H](OC)[C@H]2C[C@@H]4[C@]1(O)[C@H]2OC`: the viability at 24 h, 30 µM in data set [1] was found to be 100%. Moreover, the inhibition at 30 µM in the data set on BV-2 came out at 39.2%.
As to `CCN1C[C@]2(OC(=O)c3ccccc3NC(=O)S(C)(=O)=O)CC[C@H](OC)[C@]34C1[C@@H](C[C@H]23)[C@@]1(O)C[C@H](OC)[C@H]2C[C@@H]4[C@]1(O)[C@H]2OC`, in data set [1], the viability at 24 h, 30 µM was 102%. In the data set with BV-2, the inhibition at 30 µM turned out to be 5.1%.
Taken in the same sequence, the figures for `CCN1C[C@]2(OC(=O)c3ccccc3NC(=O)S(=O)(=O)c3ccccc3Br)CC[C@H](OC)[C@]34C1[C@@H](C[C@H]23)[C@@]1(O)C[C@H](OC)[C@H]2C[C@@H]4[C@]1(O)[C@H]2OC` were 92.6% and 7.3%.
Taken in the same sequence, the figures for `CCN1C[C@]2(OC(=O)c3ccccc3NC(=O)S(=O)(=O)c3ccc4c(c3)CCC4)CC[C@H](OC)[C@]34C1[C@@H](C[C@H]23)[C@@]1(O)C[C@H](OC)[C@H]2C[C@@H]4[C@]1(O)[C@H]2OC` were 94.4% and 18.1%.
Taken in the same sequence, the figures for `CCN1C[C@]2(OC(=O)c3ccccc3NC(=O)S(=O)(=O)c3ccc(OC)cc3OC)CC[C@H](OC)[C@]34C1[C@@H](C[C@H]23)[C@@]1(O)C[C@H](OC)[C@H]2C[C@@H]4[C@]1(O)[C@H]2OC` were 99.7% and 20.9%.
Regarding `CCN1C[C@]2(OC(=O)c3ccccc3NC(=O)S(=O)(=O)c3ccc(Br)cc3)CC[C@H](OC)[C@]34C1[C@@H](C[C@H]23)[C@@]1(O)C[C@H](OC)[C@H]2C[C@@H]4[C@]1(O)[C@H]2OC`, in data set [1], the viability at 24 h, 30 µM was determined as 109%. Also, the inhibition at 30 µM with BV-2 was 40.8%.
On to `CCN1C[C@]2(OC(=O)c3ccccc3NC(=O)S(=O)(=O)c3cccs3)CC[C@H](OC)[C@]34C1[C@@H](C[C@H]23)[C@@]1(O)C[C@H](OC)[C@H]2C[C@@H]4[C@]1(O)[C@H]2OC`, for which the viability at 24 h, 30 µM in data set [1] is 105%. Also, the inhibition at 30 µM in the data set with BV-2 is 55.9%.
Taken in the same sequence, the figures for `CCN1C[C@]2(OC(=O)c3ccccc3NC(=O)S(=O)(=O)c3cc(Cl)ccc3OC)CC[C@H](OC)[C@]34C1[C@@H](C[C@H]23)[C@@]1(O)C[C@H](OC)[C@H]2C[C@@H]4[C@]1(O)[C@H]2OC` were 94.9% and 6%.
The corresponding values for `CCN1C[C@]2(OC(=O)c3ccccc3NC(=O)C3CCOCC3)CC[C@H](OC)[C@]34C1[C@@H](C[C@H]23)[C@@]1(O)C[C@H](OC)[C@H]2C[C@@H]4[C@]1(O)[C@H]2OC` are 103% and 36.3%.
With `CCN1C[C@]2(OC(=O)c3ccccc3NC(=O)S(=O)(=O)c3cccc4ccccc34)CC[C@H](OC)[C@]34C1[C@@H](C[C@H]23)[C@@]1(O)C[C@H](OC)[C@H]2C[C@@H]4[C@]1(O)[C@H]2OC`, the viability at 24 h, 30 µM in data set [1] was 105%. Moreover, the inhibition at 30 µM with BV-2 worked out at 30.5%.
Taken in the same sequence, the figures for `CCN1C[C@]2(OC(=O)c3ccccc3NC(=O)S(=O)(=O)c3ccc(OC)c(OC)c3)CC[C@H](OC)[C@]34C1[C@@H](C[C@H]23)[C@@]1(O)C[C@H](OC)[C@H]2C[C@@H]4[C@]1(O)[C@H]2OC` were 105% and 19.4%.
